From US5223421A, “Identification of methionine Nα-acetyltransferase” (The General Hospital Corporation, priority 1990, dated 1993)

Experiments:
[1] = system: N^α -acetyltransferase activity of crude yeast lysate, wild-type (AAA1) strain T3A; experiment: N^α -acetylation of peptide substrates by crude yeast lysate, wild-type strain; assay type: biochemical, Saccharomyces cerevisiae; conditions: for Activity (%) AAA1: crude lysate of wild-type strain T3A, mean ± SD (N=3-5), normalized to human adrenocorticotropic hormone (1-24), 50 μM peptide
Method: (§1) N^α -acetyltransferase activity was determined as previously described [Lee et al., J. Biol. Chem. 263:14948-14955 (1988)]. Aliquots of the lysate or chromatographic fractions were added to 1.5 ml Eppendorf tubes containing a reaction mixture of 50 mM HEPES, pH 7.4, 150 mM KCl, 1 mM DTT, 25 μM [^3 H] acetyl coenzyme A (0.5 μCi) and 50 μM synthetic peptide with an adjusted final volume of 100 μl. The assay mixture was incubated at 30° C. for 30 min. The reaction was stopped by adding 17 μl of 0.5M acetic acid and chilled in an ice bath. The reaction samples were filtered through SP membrane discs (Cuno) (previously pre-swollen in 0.5M acetic acid), and then washed three times with 1 ml of 0.5M acetic acid on a Millipore 1225 sampling manifold. The partially dried membranes were placed in scintillation cocktail and counted with a Beckman LS 3801 scintillation counter. One unit of activity was defined as the amount of enzyme able to transfer 1 pmol of [^3 H] acetyl group from [^3 H] acetyl coenzyme A to synthetic peptide per min under standard enzyme assay conditions defined above.
(§2) The wild-type (containing endogenous N^α -acetyltransferase activity) and the aaa1 (lacking endogenous N^α -acetyltransferase activity) strains were T3A and T3A-a, respectively (Lee, F-J. S., et al., J. Bacteriol. 171, 5795-5802 (1989)). Human adrenocorticotropic hormone (1-24), yeast alcohol dehydrogenase (1-24), and human superoxide dismutase (1-24) have either serine or alanine as amino-terminal residues, while proteinase A inhibitor 3 has a methionine residue. The synthesis of the peptide substrates, the preparation of the crude yeast homogenate, and the assay of enzyme activity were as previously described by Lee et al. (Lee, F-J. S., et al., J. Biol. Chem. 263:14948 (1988); Kamitani, K., et al., J. Biol. Chem. 264:13188 (1989)). The numbers in parentheses refer to the residue numbers, and the letters in parentheses specify the amino acid sequence. Abbreviations: A (alanine), C (cysteine), D (aspartic acid), E (glutamic acid), F (phenylalanine), G (glycine), H (histidine), I (isoleucine), K (lysine), L (leucine), M (methionine), N (asparagine), P (proline), Q (glutamine), R (arginine), S (serine), T (threonine), V (valine), W (tryptophan). Data are reported as mean activity±SD (N=3-5) and are normalized to the activity of the homogenate towards human adrenocorticotropic hormone (1-24).

[2] = molecular target: T1, N^α -acetyltransferase activity of crude yeast lysate, aaa1 mutant strain T3A-a (Saccharomyces cerevisiae, UniProt Q06504); experiment: N^α -acetylation of peptide substrates by crude yeast lysate, aaa1 mutant strain; assay type: biochemical; conditions: for Activity (%) aaa1: crude lysate of aaa1 mutant strain T3A-a, mean ± SD (N=3-5), normalized to human adrenocorticotropic hormone (1-24), 50 μM peptide
T1 construct: a crude yeast homogenate from the aaa1 mutant strain; endogenous in cells; host or cells: Saccharomyces cerevisiae strain T3A-a (aaa1), crude lysate
T1 sequence (Q06504 1-195): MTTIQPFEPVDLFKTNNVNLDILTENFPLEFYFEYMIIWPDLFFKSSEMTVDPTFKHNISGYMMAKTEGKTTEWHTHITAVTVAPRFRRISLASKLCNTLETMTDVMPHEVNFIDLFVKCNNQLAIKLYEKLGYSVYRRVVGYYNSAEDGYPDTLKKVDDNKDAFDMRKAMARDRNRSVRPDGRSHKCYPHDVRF
T1 sequence (Q12387 1-796 partner): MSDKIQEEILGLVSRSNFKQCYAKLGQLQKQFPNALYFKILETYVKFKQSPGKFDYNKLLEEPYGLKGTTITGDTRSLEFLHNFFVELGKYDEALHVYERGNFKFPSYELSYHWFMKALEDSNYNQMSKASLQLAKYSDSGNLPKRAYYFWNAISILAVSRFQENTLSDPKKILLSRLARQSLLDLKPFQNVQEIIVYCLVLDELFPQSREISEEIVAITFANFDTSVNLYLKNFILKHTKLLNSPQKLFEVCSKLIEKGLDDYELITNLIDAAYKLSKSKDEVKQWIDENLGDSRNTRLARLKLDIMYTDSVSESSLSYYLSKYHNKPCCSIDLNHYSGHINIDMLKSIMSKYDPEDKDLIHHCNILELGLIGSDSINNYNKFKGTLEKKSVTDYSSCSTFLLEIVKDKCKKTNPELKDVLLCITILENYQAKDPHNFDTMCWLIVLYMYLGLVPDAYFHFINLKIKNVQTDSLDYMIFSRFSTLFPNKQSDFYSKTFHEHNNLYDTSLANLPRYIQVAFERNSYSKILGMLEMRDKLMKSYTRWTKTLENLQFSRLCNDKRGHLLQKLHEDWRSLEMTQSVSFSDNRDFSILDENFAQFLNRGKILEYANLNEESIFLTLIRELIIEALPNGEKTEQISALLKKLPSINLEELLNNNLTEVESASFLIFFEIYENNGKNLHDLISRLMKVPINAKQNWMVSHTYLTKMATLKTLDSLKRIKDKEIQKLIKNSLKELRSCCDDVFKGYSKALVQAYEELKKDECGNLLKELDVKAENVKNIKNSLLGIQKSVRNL
Method: as §1, §2

| Substance | Activity (%) AAA1 [1] [%] | acetylation of the peptide substrate by wild-type strain ([1]; crude lysate, wild-type strain) | Activity (%) aaa1 [2] [%] | acetylation of the peptide substrate by aaa1 mutant ([2]; crude lysate, aaa1 mutant) |
| --- | --- | --- | --- | --- |
| MNTDQQKVSEIFQSSKEKLQGDAK (MNTDQQKVSEIFQSSKEKLQGDAK) [Proteinase A Inhibitor 3 (1-24) (Yeast)] | 75 ± 5 | capable of acetylating | 80 ± 5 | capable of acetylating |
| SIPETQKGVIFYESHGKLEYKDIP (SIPETQKGVIFYESHGKLEYKDIP) [Alcohol dehydrogenase (1-24) (Yeast)] | 102 ± 5 | – | 0 | – |
| SYSMEHFRWGKPVGKKRRPVKVYP | 100 ± 5 | – | 0 | – |
